Test results taken from a melting point compilation (Tetko et al.; mined from patent text by program, amines drawn as free bases though some values may be those of a salt).

Row | Structure (SMILES) | melting point [°C]
1 | Cc1c2c(c(C)c3c1NCC3)OC(C)(CI)C2 (stereo unspecified) | 90 to 91
2 | O=C(Cc1ccc(Cl)c(Cl)c1)c1ccc(Cl)cc1 | 99 to 103
3 | Cc1ccc(-c2c(Cl)ncn2-c2ccc(S(C)(=O)=O)cc2)cc1Cl | 181 to 182
4 | O=C(O)c1coc(Cn2cc(C3c4ccccc4C=Cc4ccccc43)c(=S)[nH]c2=O)n1 | 200
5 | Cc1ccc(O)c(C(CCCC(c2cc(C)ccc2O)c2cc(C)ccc2O)c2cc(C)ccc2O)c1 | 220 to 228
6 | O=C(N[C@H]1CCC(=O)N2CCC[C@@H](C(=O)O)N2C1=O)OCc1ccccc1 | 60 to 100
7 | CC(C)(C)OC(=O)N1CCC(S(C)(=O)=O)CC1 | 94 to 95
8 | OCC1Cc2c(ccc3c(-c4ccccc4)noc23)O1 (stereo unspecified) | 107 to 109
9 | CN(C)c1ccc(C(=O)Nc2nc(-c3ccco3)c(C(=O)C3CCOCC3)s2)cc1 | 238 to 240
10 | CN(C)CCCNC(=O)c1ccc(-c2ccc3nnn(Cc4ccc5ncccc5c4)c3n2)cc1F | 148 to 150
11 | CC(C)C[C@H](NC(=O)Cc1csc2ccccc12)C(=O)N[C@@H](Cc1ccccc1)C(=O)CSCc1ccco1 | 150 to 153
12 | O=C(O)[C@H](Cc1ccccc1)NS(=O)(=O)c1ccc2c(c1)Sc1ccccc1O2 | 120 to 130
13 | CSc1nn(C(=O)NC2CCCCC2)c(=O)n1C | 136
14 | CS(=O)(=O)c1ccc2[nH]cc(CCN)c2c1 | 134 to 138
15 | CC1(C)CCCC2(C)C3CC=C(C=O)CC(=O)C3CCC12 (stereo unspecified) | 87 to 88
16 | C1=C2c3ccccc3C3CC2(CN1Cc1ccccc1)c1ccccc13 (stereo unspecified) | 135 to 145
17 | CSc1cc(C(C)(C)C)nn1C(=O)Cl | 64 to 66
18 | O=C1CCC(c2ccc3[nH]c(-c4ccsc4)cc3c2)=NN1 | 325 to 333
19 | Cc1c(C)c2c(c(C)c1O)CCC(C)(C1N[C@H](C(=O)O)CS1)O2 (stereo partly specified) | 184 to 186
20 | O=C(O)CN1C(=O)C(Cl)=C(Cl)C1=O | 191 to 192
21 | CC(C)(O)c1cccc(Oc2cccc(-c3c(Cc4ccccc4)cnc4c(C(F)(F)F)cccc34)c2)c1 | < 80
22 | Nc1ccc(Sc2ccccc2)cc1F | 48 to 49
23 | CS(=O)(=O)c1ccc(-c2ccccc2NC(=N)N2CCCCC2)cc1 | 128 to 129
24 | COC(=O)Cc1coc(-c2cc(C(C)(C)C)c(O)c(C(C)(C)C)c2)n1 | 126 to 128
25 | Cc1nc2c(N)cc(C(=O)N(C)C)cc2n1C | 230 to 234
26 | COc1ccc(C(=O)Oc2cccc3cc4cccc(OC(=O)c5ccc(OC)cc5)c4c(OC(=O)c4ccc(OC)cc4)c23)cc1 | 260

Row | Structure (SMILES) | melting point [°C]
27 | O=C1Nc2ccccc2C(c2ccccc2)N1CCO (stereo unspecified) | 141
28 | Oc1cc2c(cc1Sc1ccccc1)OCC2 | 80 to 81
29 | CSc1c(Cl)c(O)nn1C | 163 to 165
30 | C#Cc1cnn2c(C(F)(F)F)cc(-c3ccc(Cl)cc3)nc12 | 102 to 103
31 | Cc1[nH]c2ccc(F)cc2c1CCCN1CCN(c2ccccc2)CC1 | 146 to 147
32 | CC(C)(Oc1ccc(COCc2ccc3cn(-c4ccc(C(F)(F)F)cc4)nc3c2)cc1)C(=O)O | 129 to 131
33 | C=Cc1[nH]c(=O)c2c(ccc3nc(Nc4c(Cl)cccc4Cl)n(C)c32)c1C | > 300
34 | N#CCc1cccc2c(-c3ccc(Cl)cc3)onc12 | 165 to 169
35 | Cn1nnnc1Cc1ccc2c(c1)c(C1=CCN(CCN3CCNC3=O)CC1)cn2-c1ccc(F)cc1 | 174 to 176
36 | ONc1ccc(Cl)cc1 | 83 to 84
37 | CCCCC(C(=O)Nc1c(C(C)C)cccc1C(C)C)C1c2ccccc2Oc2ccccc21 (stereo unspecified) | 188 to 189
38 | Cc1ccc(-c2nnc3cc(-c4ccccc4)c(OCc4ncn(C)n4)nn23)cc1 | 219 to 220
39 | Nc1c(-c2ccc(-c3ccccc3F)cc2)nc2ccc(Cl)cc2c1C(=O)O | 247 to 249
40 | CN1C(=O)C[C@@H](c2ccccc2)[C@H]1C(=O)c1ccccc1 | 115 to 116
41 | CC(Nc1nc(-c2ccccc2)cs1)c1ccc(COc2ccc(CC(=O)O)cc2)cc1 (stereo unspecified) | 116 to 118
42 | CC(O)c1nc(N)nc(N)c1-c1ccc(Cl)cc1 (stereo unspecified) | 159
43 | C=C(C)[C@@H]1CC[C@]2(C(=O)O)CC[C@]3(C)[C@H](CC[C@@H]4[C@@]5(C)CC[C@H](OC(=O)[C@H]6C[C@@H](C(=O)O)C6(C)C)C(C)(C)[C@@H]5CC[C@]43C)[C@@H]12 | 308 to 310
44 | O=C(O)c1c(C(F)(F)F)nc2ccccc2c1O | 262
45 | N=C(C1=C(O)C(=O)c2ccccc2C1=O)c1ccccc1 | 258 to 259
46 | O=C1NC(=O)C2(c3ccc4ccc(O)nc4n3)C=CC=CC12 (stereo unspecified) | 370
47 | CC(O)(CCCl)c1ccc(-c2ccc(F)cc2)cc1 (stereo unspecified) | 78 to 79
48 | O=C(O)c1ccccc1Nc1cccc(Br)c1 | 169 to 171
49 | Cn1cc(-c2cccc(N3Cc4cc(C(C)(C)C)ccc4C3=O)c2CO)nc(Nc2cnn(C3CC3)c2)c1=O | 218 to 219
50 | Cc1noc(C)c1C(=O)Nc1ccc(-n2nc(C(F)(F)F)cc2C(F)(F)F)c(C(F)(F)F)c1 | 61 to 63
51 | O=C(O)c1cccnc1C1=NC(=O)C2(CCCCC2)N1 | 186 to 189
52 | Cc1cc2[nH]c3cc(Cl)ncc3c(=O)n2n1 | > 300

Second part, the compound after the results:

Row | melting point [°C] | Structure (SMILES)
53 | > 250 | CCc1nc2c(N)nc3ccccc3c2n1CC1(O)CCSCC1
54 | 165 to 166 | CCN(CC)c1ccc(C2OC(=O)c3cc(N(C)C)ccc32)cc1 (stereo unspecified)
55 | 69 to 71 | CCCCOc1ccc2c(c1)C(N(CCCO)S(C)(=O)=O)CC(C)(C)O2 (stereo unspecified)
56 | 41 to 43 | CCc1ccc2c(-c3ccccc3)onc2c1
57 | 80 to 81 | CCC#CCCOc1ccc(C=O)cc1OC
58 | 126 to 127 | CCOC(=O)CN[C@@H](c1ccccc1)[C@H](O)c1ccccc1
59 | 142 to 143 | Cc1oc(-c2cc3ccccc3s2)nc1COc1ccc(CCCn2ccnc2)cc1
60 | 61 to 62 | COCCN1CCN(C(C)c2ccc(-c3ccc(F)cc3)cc2)CC1 (stereo unspecified)
61 | 147 to 149 | CCOC(=O)N(C)N(C)C(=S)Nc1cc(Cl)cc(Cl)c1
62 | 106 to 107 | O=CNCS(=O)(=O)c1ccccc1
63 | 172 to 173 | CCc1ccc(Cn2c(C)nc3ccc(C(=O)OC)nc32)c(Cl)c1
64 | 85 to 87 | CC(C)(C)OC(=O)C(CO)NC(=O)c1coc(-c2cocn2)n1 (stereo unspecified)
65 | 97 to 109 | Cc1cccnc1-c1cccc(OC2SCC(O)C(O)C2O)c1 (stereo unspecified)
66 | 210 | CC(C)c1cc2c(s1)Sc1ccccc1NC2=S
67 | 106 | CC(C)n1nc(C#Cc2ccc(F)cc2)ccc1=O
68 | 85 to 87 | CCCCCCCCCCCCCC(=O)NCCOCCn1c(CCOC)nc2c(N)nc3ccccc3c21
69 | 145 | Cc1ccc(S(=O)(=O)N2[C@@H](CCc3ncnn3C)CC[C@H]2c2ccc(F)cc2)cc1 (racemic)
70 | 88 | COCCN(C)C1CCN(c2ccc(N)cc2C#N)CC1
71 | 114 to 116 | CCOc1cc(C(F)(F)F)nc(N)n1
72 | 236 to 238 | Cc1nc2c(N)nc3cc(OCCC4CCN(C(=O)C5CCCC5)CC4)ccc3c2n1CC(C)C
73 | 200 to 203 | CC(C)c1ccc(CCNc2ncnc3ncccc23)cc1
74 | 173 to 174 | COC(=O)c1cc(COc2nn(-c3ccccc3)cc2C=O)ccc1OCc1nc(-c2ccco2)oc1C
75 | 85.5 | C=CCc1c(OCCCOc2ccc3c(c2)OC(C(=O)O)CC3)ccc(C(C)=O)c1OC (stereo unspecified)
76 | 40 to 44 | COCCCn1c(Cl)nc2ccc(C)cc21
77 | 184 to 186 | CCOC(=O)c1c(CO)c(C)n(C)c1C

Row | melting point [°C] | Structure (SMILES)
78 | 54 | COC(=O)CCNC(=O)C(=Cc1ccccc1)CSC(C)=O
79 | 160 to 165 | COc1cc2c(cc1OC)CN(CC(O)c1ccc(NC(=O)c3cccc4c(=O)c5cccc(OC)c5[nH]c34)cc1)CC2 (stereo unspecified)
80 | > 250 | CC1(C)C=C(c2c(N)c(=O)c2=O)c2cc(C#N)ccc2O1
81 | 172 to 173 | O=C(CCc1ccccc1)Cn1ccnc1
82 | 165 to 168 | COc1cc(OCc2ccccn2)ccc1/C=C/C(=O)CC(=O)/C=C/c1ccc2cc[nH]c2c1
83 | 215 to 216 | NC(=O)c1ccc(-c2ccc(O)cc2)cc1Cl
84 | 168 to 171 | Cc1cccc2c1NCC(=O)N2
85 | 124 to 125 | CCOC(=O)CN(c1cccc2cc(-c3nccs3)n(COC)c12)S(=O)(=O)c1cccs1
86 | 161 to 163 | COc1ccc(S(=O)(=O)C(Cc2ccc3ccccc3c2)C(=O)NO)cc1 (stereo unspecified)
87 | 283 to 287 | COc1ccc(Nc2nc3cc4c(cc3[nH]2)C(C)(C)CC(=O)N4)cc1
88 | 86 to 87 | CCOC(=O)Cc1ccc(OCc2nc(-c3ccccc3)oc2C)c(OC)c1
89 | 98 to 100 | CCOC(=O)CNc1ncccc1NC(=O)c1ccccn1
90 | 148 to 150 | COC(=O)C1=C(C)NCC(C)(C(=O)OC)C1c1ccccc1C=C[Si](C)(C)C (stereo unspecified)
91 | 163 | CCCCCCCc1ccc(-c2ccc(C(=O)O)cc2)cc1
92 | 126 to 128 | CCc1ccc(C#CC(C)N(O)C(=O)NC)cc1 (stereo unspecified)
93 | 186 to 196 | COc1ccc(Nc2nc(NC3CCCCCC3)nc(Oc3ccc(C(C)=O)cc3Cl)n2)cc1Cl
94 | 157 to 158 | COc1ccc(/C=C/c2c(Cl)cncc2Cl)c2cc(-c3ccccn3)oc12
95 | 116 | COCCNC(=O)c1cccc(-c2ccc3c(c2)C(c2cc(Cl)ccc2Cl)CC3)c1 (stereo unspecified)
96 | 182 to 183 | COc1c(-c2cc3c(s2)C(O)CC(C)(C)C3)ccc2c(=O)c(C(=O)O)cn(C3CC3)c12 (stereo unspecified)
97 | 78 to 79 | COc1ccc(C[C@H](N)[C@H](O)c2ccc(F)cc2)cc1 (racemic)
98 | 103 to 104 | C=CC(C)(C)CC(=O)C(=O)Nc1ccc2c(c1)C(=O)OC2
99 | 61 | COc1cc(C(F)(F)F)oc(=O)c1
100 | 130 to 134 | CCCCOCCOc1ccc(-c2ccc3c(c2)C=C(C(=O)OC)CCN3C(=O)CNC(C)=O)cc1
101 | 102 to 103 | COC(=O)/C=C/n1cnc2c(C(C)C)cc(C(C)C)cc2c1=O
